Data on 5 molecules can be found in patent US5663139A, “Inhibitors of retroviral proteases” (Hoechst Aktiengesellschaft, priority 1992, dated 1997).

Each structure is given as a SMILES string. Counter-ions that a name gives are not always drawn.

The test addresses T1, HIV protease (Human immunodeficiency virus type 1 group M subtype B, UniProt P04585).
T1 construct: The HIV protease is composed of 99 amino acids and evidently excises itself out of the pol polyprotein
Nature of the test: HIV protease enzyme test (HPLC cleavage of heptapeptide substrate H-Ser-Phe-Asn-Phe-Opr-Gln-Ile-OH). Conditions: inhibitor concentration at which the cleavage rate is halved, 37° C., 2 hours. The test is classed as biochemical. The text has this: In particular, they inhibit HIV protease. Their enzyme-inhibitory effect, which is in the milli- to subnano-molar range, can be determined as follows.
The substrates of the HIV protease which have been employed thus far include the heptapeptide: H-Ser-Phe-Asn-Phe-Pro-Gln-Ile-OH (SEQ ID NO. 1) (P. L. Darke et al., Biophys. Res. Commun. 156 (1988) 297-303). When this peptide is used as the substrate, the HIV protease cleaves it between the second Phe and the Pro.
General instructions for testing inhibitors of the HIV proteases:
2 mg of H-Ser-Phe-Asn-Phe-Opr-Gln-Ile-OH (H-Opr-OH=5-oxaproline) (SEQ ID NO. 1) are dissolved in 1 ml of MGTE 15 buffer (use of ultrasonication if required) and this solution is subsequently filtered through a sterilizing filter (0.45 μm).
2.5 times the necessary quantity of inhibitor to give the desired molarity per ml of solution is weighed out and dissolved in DMSO (10% of the final volume). This solution is diluted with MGTE 15 buffer to the final volume and then filtered through a sterilizing filter (0.45 μm).
5 μl of the HIV protease solution are diluted with MGTE25 buffer as required.
In each case, 10 μl of the substrate solution are pipetted into a test tube (16×100) having a screw cap. 10 μl of MGTE 15 buffer, which contains 10% DMSO, are pipetted in for the blank experiment. 10 μl of the inihibitor solutions are added to each of the remaining test tubes. The tubes are incubated at 37° C. for 5-10 minutes and 5 μl of the protease solution are then added to each sample. Following reaction at 37° C. for 2 hours, 10 or 20 μl (depending on the sensitivity of the HPLC equipment) are pipetted out from each sample, added to microvials and diluted with 120 μl of the HPLC eluant.
e) Conditions for the HPLC Analysis
Under the conditions chosen for this experiment, the heptapeptide is separated from the N-terminal tetrapeptide resulting from the enzymic cleavage. The % content of tetrapeptide peak related to the sum of tetrapeptide+heptapeptide gives the cleavage rate. The following IC50 values indicate the inhibitor concentrations at which the cleavage rate is halved: […]
On to `CCOP(=O)(C(Cc1ccccc1)NC(=O)[C@@H](NC(=O)OCc1ccccc1)C(C)C)C(O)C(Cc1ccccc1)NC(=O)[C@@H](NC(=O)OCc1ccccc1)C(C)C` (some centres unmarked) [Example 3], for which half-maximal inhibition (IC50) was put at 70 nM. This lies in the double-digit nanomolar range.
The figure for `CC(C)[C@H](NC(=O)OCc1ccccc1)C(=O)NC(Cc1ccccc1)C(O)P(=O)(O)C(Cc1ccccc1)NC(=O)[C@@H](NC(=O)OCc1ccccc1)C(C)C` (stereo partly drawn) [Example 4, 1-{2-[(Benzyloxycarbonyl-L-valyl)amino]-1-hydroxy-3-phenylpropyl},1-{-[(benzyloxycarbonyl-L-valyl)amino]-2-phenylethyl}phosphinic acid] is 1.3 nM; for `CCOP(=O)(C(Cc1ccccc1)NC(=O)[C@@H](NC(=O)[C@@H](N)Cc1cccc2ccccc12)C(C)C)C(O)C(Cc1ccccc1)NC(=O)[C@@H](NC(=O)[C@@H](N)Cc1cccc2ccccc12)C(C)C` (stereo partly drawn) [Example 7, Ethyl 1-{2-[(L-naphthylalanyl-L-valyl)amino]-1-hydroxy-3-phenylpropyl},1-{1-[(L-naphthylalanyl-L-valyl)amino]-2-phenylethyl}phosphinate bistrifluoroacetate] it is 15 nM.
In turn, `CC(C)[C@H](NC(=O)[C@@H](N)Cc1cccc2ccccc12)C(=O)NC(Cc1ccccc1)C(O)P(=O)(O)C(Cc1ccccc1)NC(=O)[C@@H](NC(=O)[C@@H](N)Cc1cccc2ccccc12)C(C)C` (stereo partly drawn) [Example 8, 1-{2-[(L-Naphthylalanyl-L-valyl)amino]-1-hydroxy-3-phenylpropyl},1-{1-[(L-naphthylalanyl-L-valyl)amino]-2-phenylethyl}phosphinic acid dihydrobromide] registered an IC50 of 0.5 nM.
To `CC(C)[C@H](NC(=O)C(Cc1cccc2ccccc12)CS(=O)(=O)C(C)(C)C)C(=O)NC(Cc1ccccc1)C(O)P(=O)(O)C(Cc1ccccc1)NC(=O)[C@@H](NC(=O)C(Cc1cccc2ccccc12)CS(=O)(=O)C(C)(C)C)C(C)C` (stereo partly drawn) [Example 10, 1-{2-[((2S(tert-Butylsulfonylmethyl)-3-(1-naphthyl)-propionyl)-L-valyl)amino]-1-hydroxy-3-phenylpropyl},1-{1-[((2S(tert-butylsulfonylmethyl)-3-(1-naphthyl)propionyl)-L-valyl)amino]-2-phenylethyl}phosphinic acid] belongs 4.2 nM.
